In PubChem BioAssay (NCI):
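Protocol summary: plate cells (96-well), add compound at 5 concentrations, incubate 48 h, interpolate endpoints linearly. TGI: concentration producing complete growth inhibition.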

Assays:
Assay in all cases: NCI anticancer screen, dose series, 48 h
[1] = test system: A498 renal
[2] = test system: A549 NSCLC
[3] = test system: ACHN renal
[4] = test system: CAKI-1 renal
[5] = test system: CCRF-CEM leukemia
[6] = test system: COLO 205 colon
[7] = test system: DLD-1 colon
[8] = test system: DMS 114 small cell lung
[9] = test system: EKVX NSCLC
[10] = test system: HCC-2998 colon
[11] = test system: HCT-116 colon
[12] = test system: HCT-15 colon
[13] = test system: HL-60(TB) leukemia
[14] = test system: HOP-62 NSCLC
[15] = test system: HOP-92 NSCLC
[16] = test system: HT29 colon
[17] = test system: IGROV1 ovarian
[18] = test system: K-562 leukemia
[19] = test system: KM12 colon
[20] = test system: KM20L2 colon
[21] = test system: LXFL 529 NSCLC
[22] = test system: M14 melanoma
[23] = test system: MALME-3M melanoma
[24] = test system: MOLT-4 leukemia
[25] = test system: NCI-H226 lung
[26] = test system: NCI-H23 lung
[27] = test system: NCI-H460 lung
[28] = test system: NCI-H522 lung
[29] = test system: OVCAR-3 ovarian
[30] = test system: OVCAR-4 ovarian
[31] = test system: OVCAR-5 ovarian
[32] = test system: OVCAR-8 ovarian
[33] = test system: RPMI-8226 leukemia
[34] = test system: RXF 393 renal
[35] = test system: SF-268 CNS
[36] = test system: SF-295 CNS
[37] = test system: SF-539 CNS
[38] = test system: SK-MEL-2 melanoma
[39] = test system: SK-MEL-28 melanoma
[40] = test system: SK-MEL-5 melanoma
[41] = test system: SK-OV-3 ovarian
[42] = test system: SN12C renal
[43] = test system: SNB-19 CNS
[44] = test system: SNB-75 CNS
[45] = test system: SNB-78 CNS
[46] = test system: SR leukemia
[47] = test system: SW-620 colon
[48] = test system: TK-10 renal
[49] = test system: U251 CNS
[50] = test system: UACC-257 melanoma
[51] = test system: UACC-62 melanoma
[52] = test system: UO-31 renal
[53] = test system: XF 498 CNS
[54] = test system: 786-0 renal
[55] = test system: BT-549 breast
[56] = test system: DMS 273 small cell lung
[57] = test system: DU-145 prostate
[58] = test system: HS 578T breast
[59] = test system: LOX IMVI melanoma
[60] = test system: M19-MEL melanoma
[61] = test system: MCF7 breast
[62] = test system: MDA-MB-231 breast
[63] = test system: MDA-MB-435
[64] = test system: MDA-N
[65] = test system: NCI/ADR-RES ovarian
[66] = test system: PC-3 prostate
[67] = test system: T-47D breast

`[O-]c1c2c(nn1-c1ccc(F)cc1)c1ccccc1c[n+]2Cc1ccccc1` was tested, and the TGI [1] was 85.3 µM, the TGI [2] was 73.1 µM and the TGI [3] was 28 µM. The TGI [4] was 94.7 µM, the TGI [5] was 33.7 µM and the TGI [6] was 4.52 µM. The TGI [7] was 43.7 µM, the TGI [8] was 32.9 µM and the TGI [9] was 56.4 µM. It also gave a TGI [10] of 24.8 µM, a TGI [11] of 32.9 µM and a TGI [12] of 39.1 µM. It also gave a TGI [13] of 11.1 µM, a TGI [14] of 32.1 µM and a TGI [15] of 57.9 µM. For the same molecule, the TGI [16] was 27.1 µM, the TGI [17] was 30.6 µM and the TGI [18] was 81.4 µM. The TGI [19] was 25 µM, the TGI [20] was 25.9 µM and the TGI [21] was 18.8 µM. It also gave a TGI [22] of 15.3 µM, a TGI [23] of 25.6 µM and a TGI [24] of 81.5 µM. It also gave a TGI [25] of 47.4 µM, a TGI [26] of 55.8 µM and a TGI [27] of 29.7 µM. It also gave a TGI [28] of 21.3 µM, a TGI [29] of 22.1 µM and a TGI [30] of 66.2 µM. It also gave a TGI [31] of 41.3 µM, a TGI [32] of 61.9 µM and a TGI [33] of 47.1 µM. The TGI [34] was 33.7 µM, the TGI [35] was 40.7 µM and the TGI [36] was 40.4 µM. For the same molecule, the TGI [37] was 8.57 µM, the TGI [38] was 9.23 µM and the TGI [39] was 34 µM. For the same molecule, the TGI [40] was 13.4 µM, the TGI [41] was 41.8 µM and the TGI [42] was 52.5 µM. For the same molecule, the TGI [43] was > 100 µM, the TGI [44] was 60.5 µM and the TGI [45] was 35.4 µM. The TGI [46] was 41.9 µM, the TGI [47] was 48.7 µM and the TGI [48] was 83 µM. It also gave a TGI [49] of 33.4 µM, a TGI [50] of 30.3 µM and a TGI [51] of 14.2 µM. The TGI [52] was 54.9 µM and the TGI [53] was 45.2 µM.

In the case of `CC(C)(C)N1CC1CNC(=O)C(=O)NCC1CN1C(C)(C)C` (configuration not stated), the TGI [54] is reported as 4.31 µM, the TGI [1] is reported as > 6.04 µM and the TGI [2] is reported as 21.1 µM. The TGI [3] was 13.7 µM, the TGI [55] was > 92.6 µM and the TGI [4] was > 96.1 µM. For the same molecule, the TGI [5] was 15.2 µM, the TGI [6] was 8.5 µM and the TGI [8] was 2.49 µM. For the same molecule, the TGI [56] was 0.517 µM, the TGI [57] was > 26.9 µM and the TGI [9] was > 31.1 µM. It also gave a TGI [10] of 14.8 µM, a TGI [11] of 10.8 µM and a TGI [12] of 10.5 µM. For the same molecule, the TGI [13] was 4.57 µM, the TGI [14] was 3.68 µM and the TGI [15] was 33.3 µM. The TGI [58] was > 100 µM, the TGI [16] was 19.1 µM and the TGI [17] was 19.7 µM. For the same molecule, the TGI [18] was 15 µM, the TGI [19] was 12.3 µM and the TGI [20] was 5.96 µM. For the same molecule, the TGI [59] was > 54.1 µM, the TGI [22] was 16.6 µM and the TGI [60] was 2.62 µM. The TGI [23] was 8.68 µM, the TGI [61] was > 100 µM and the TGI [62] was > 100 µM. For the same molecule, the TGI [63] was > 100 µM, the TGI [64] was > 92.9 µM and the TGI [24] was 31.3 µM. The TGI [25] was 18.7 µM, the TGI [26] was 5.96 µM and the TGI [27] was 24.7 µM. For the same molecule, the TGI [28] was 2.15 µM, the TGI [65] was > 54 µM and the TGI [29] was 46.1 µM. For the same molecule, the TGI [30] was 60.2 µM, the TGI [31] was 7.56 µM and the TGI [32] was 14.8 µM. The TGI [66] was > 100 µM, the TGI [33] was > 18.3 µM and the TGI [34] was 5.22 µM. The TGI [35] was 15.4 µM, the TGI [36] was 14.3 µM and the TGI [37] was 13.7 µM. The TGI [38] was 10.2 µM, the TGI [39] was 11.1 µM and the TGI [40] was 45.2 µM. The TGI [41] was 13.4 µM, the TGI [42] was 15.7 µM and the TGI [43] was > 25.5 µM. The TGI [44] was 13.2 µM, the TGI [46] was 13.3 µM and the TGI [47] was > 11 µM. For the same molecule, the TGI [67] was 98.1 µM, the TGI [48] was > 100 µM and the TGI [49] was 7.29 µM. For the same molecule, the TGI [50] was 11.1 µM, the TGI [51] was 6.82 µM and the TGI [52] was > 21.3 µM. The TGI [53] was 1.31 µM.
